Ends that are not written are not given here.
How the values were obtained:
[1] = tested on: S. mutans ATCC 25175; assay: In vitro susceptibility (broth microdilution MIC, MBC by spiral-plating); type: cell-based, Streptococcus mutans
Description: (§1) Strains used in Examples 3-6 included ATCC and laboratory strains of different oral bacteria. These included: Actinomyces naeslundii strain T14V-J1, Actinomyces israelii ATCC 10049, Streptococcus mutans strains LT 11 and ATCC 25175, Streptococcus sobrinus ATCC 33478, Streptococcus gordonii strains DL1 and ATCC 51656, Streptococcus sanguis strains SK36 and ATCC 10556, Streptococcus salivarius ATCC 9222, Streptococcus oralis strains 34 and ATCC 35037, Lactobacillus salivarius ATCC 29602, Lactobacillus acidophilus ATCC 4357, and Actinobacillus actinomycetemcomitans ATCC 43718. S. mutans strain LT 11 was kindly provided by Lin Tao, University of Illinois at Chicago, Ill. S. gordonii DLI, S. sanguis SK36, and S. oralis 34 were provided by John Cisar, National Institute of Dental and Craniofacial Research, NIH, Bethesda, Md.
(§2) Todd-Hewitt broth (THB), brain heart infusion (BHI) broth, Todd-Hewitt agar (THA), trypticase soy agar (TSA), lactobacilli MRS (MRS) broth, Actinomyces broth and Mueller-Hinton broth (MHB) were purchased from Becton Dickinson. Blood agar plates (BAP) were prepared by supplementing TSA with 5% sheep blood (PML Microbiologicals). All cultures, except for Actinobacillus actinomycetemcomitans, S. mitis and Actinomyces israelii, were grown at 37° C. in room air. Actinobacillus actinomycetemcomitans cultures were grown on BAP or in MHB supplemented with 15 μg haemin ml^−1 (Sigma), 15 μg β-nicotinamide adenine dinucleotide (NAD) ml^−1 (Sigma) and 5% yeast extract (Becton Dickinson) at 37° C. in 5% CO2. S. mitis was grown on BAP or in BHI broth at 37° C. in 5% CO2. […]
(§3) MICs were determined as described by Fuchs et al. (1998) with a slight modification. […] The MIC was defined as the lowest concentration of the peptide that prevented visible turbidity, as measured at 600 nm by using an ELISA reader (Titertek Multiskan MCC/340). […] Minimum bactericidal concentrations (MBCs) were determined by spiral-plating (Spiral Plater Autoplate 4000; Spiral Biotech) 50 μl from each clear well (≧MIC) onto BAP.

[2] = tested on: S. mutans LT11; assay: as above; type: cell-based, Streptococcus mutans; settings: 4 × 10^7 cells ml^−1, 24-48 h
Description: as §1, with “Md. […]” for “Md.”
as §3

[3] = tested on: S. gordonii ATCC 51656; assay: as above; type: cell-based, Streptococcus gordonii; settings: 24-48 h
Description: as §1
(§4) Todd-Hewitt broth (THB), brain heart infusion (BHI) broth, Todd-Hewitt agar (THA), trypticase soy agar (TSA), lactobacilli MRS (MRS) broth, Actinomyces broth and Mueller-Hinton broth (MHB) were purchased from Becton Dickinson. Blood agar plates (BAP) were prepared by supplementing TSA with 5% sheep blood (PML Microbiologicals). All cultures, except for Actinobacillus actinomycetemcomitans, S. mitis and Actinomyces israelii, were grown at 37° C. in room air. Actinobacillus actinomycetemcomitans cultures were grown on BAP or in MHB supplemented with 15 μg haemin ml^−1 (Sigma), 15 μg β-nicotinamide adenine dinucleotide (NAD) ml^−1 (Sigma) and 5% yeast extract (Becton Dickinson) at 37° C. in 5% CO2. S. mitis was grown on BAP or in BHI broth at 37° C. in 5% CO2. Actinomyces israeilli was grown anaerobically in an anaerobic chamber (Coy Laboratory Products) in a 5% CO2/10% H2/85% N2 atmosphere.
(§5) MICs were determined as described by Fuchs et al. (1998) with a slight modification. Procedures were based on the National Committee for Clinical Laboratory Standards broth microdilution method. MHB was used as the main assay medium for most of the tested organisms. Freshly grown cultures at exponential phase were used as the inoculum. Bacteria were centrifuged at 4000 r.p.m. for 15 min at 4° C., suspended in 2× concentrated medium and adjusted to 4×106 c.f.u ml−1 in 2× concentrated medium. Aqueous peptide solution (100 μl) was added to each well of a 96-well, flat-bottomed plate (Becton Dickinson). […] The MIC was defined as the lowest concentration of the peptide that prevented visible turbidity, as measured at 600 nm by using an ELISA reader (Titertek Multiskan MCC/340). […] Minimum bactericidal concentrations (MBCs) were determined by spiral-plating (Spiral Plater Autoplate 4000; Spiral Biotech) 50 μl from each clear well (≧MIC) onto BAP.

[4] = tested on: S. gordonii DL1; assay: as above; type: cell-based, Streptococcus gordonii; settings: 24-48 h
Description: as §1, §4, §5

[5] = tested on: S. sanguis ATCC 10556; assay: as above; type: cell-based, Streptococcus sanguis; settings: 24-48 h
Description: as §1, §4, §5

[6] = tested on: S. sanguis SK36; assay: as above; type: cell-based, Streptococcus sanguis; settings: 24-48 h
Description: as §1, §4, §5

[7] = tested on: S. oralis ATCC 35037; assay: as above; type: cell-based, Streptococcus oralis; settings: 24-48 h
Description: as §1, with “Md. […]” for “Md.”
as §3

[8] = tested on: S. sobrinus ATCC 33478; assay: as above; type: cell-based, Streptococcus sobrinus
Description: as §1, §2, §3

[9] = tested on: S salivarius ATCC 9222; assay: as above; type: cell-based, Streptococcus salivarius; settings: 24-48 h
Description: as §1, with “Md. […]” for “Md.”
as §3

[10] = tested on: Actinomyces israelii ATCC 10049; assay: as above; type: cell-based; settings: 24-48 h
Description: as §1, §4
(§6) MICs were determined as described by Fuchs et al. (1998) with a slight modification. Procedures were based on the National Committee for Clinical Laboratory Standards broth microdilution method. MHB was used as the main assay medium for most of the tested organisms. Freshly grown cultures at exponential phase were used as the inoculum. Bacteria were centrifuged at 4000 r.p.m. for 15 min at 4° C., suspended in 2× concentrated medium and adjusted to 4×106 c.f.u ml−1 in 2× concentrated medium. Aqueous peptide solution (100 μl) was added to each well of a 96-well, flat-bottomed plate (Becton Dickinson). The peptide solution was serially diluted (twofold) with sterile distilled water in the wells, with final peptide concentrations ranging from 3.13 to 200 μg ml−1. After dispensing 100 μl aliquots of bacterial suspension into the wells, the 96-well plates were incubated at 37° C. for 24-48 h in room air, CO2 or anaerobically. The MIC was defined as the lowest concentration of the peptide that prevented visible turbidity, as measured at 600 nm by using an ELISA reader (Titertek Multiskan MCC/340). […] Minimum bactericidal concentrations (MBCs) were determined by spiral-plating (Spiral Plater Autoplate 4000; Spiral Biotech) 50 μl from each clear well (≧MIC) onto BAP.

[11] = tested on: Actinomyces naeslundii T14V-J1; assay: as above; type: cell-based; settings: 24-48 h
Description: as §1, §4, §6

[12] = tested on: S. mitis ATCC; assay: as above; type: cell-based; settings: 24-48 h
Description: as §1, §4, §6

[13] = tested on: Actinobacillus actinomycetemcomitans ATCC 43718; assay: as above; type: cell-based; settings: 4 × 10^7 cells ml^−1, 24-48 h
Description: as §1, with “Md. […]” for “Md.”
as §3

[14] = tested on: L. salivarius ATCC 29602; assay: as above; type: cell-based, Lactobacillus salivarius; settings: 24-48 h
Description: as §1, with “Md. […]” for “Md.”
as §3

[15] = tested on: L. acidophilus ATCC 4357; assay: as above; type: cell-based, Lactobacillus acidophilus
Description: as §1, §2, §3

[16] = tested on: L. salivarius ATCC 29602; assay: Bactericidal assay (log reduction in viable counts); type: cell-based, Lactobacillus salivarius
Description: as §1
(§7) The bactericidal assay was performed according to procedures described by Miyasaki et al. (1997, 1998) with a slight modification. […] Susceptibility was determined by examining the log reduction in viability counts of organisms that had been exposed to different concentrations of KSL. […] Bactericidal activity was also expressed as the 99% effective dose (ED99), which is the concentration of the antimicrobial decapeptide at which there is a 2-log or more reduction in c.f.u. […]
(§8) In addition to the determinations of MICs and MBCs of KSL, log reductions in viable counts of selected oral bacteria caused by KSL were also determined. […] With the exception of Actinobacillus actinomycetemcomitans, for which the assays were performed in 0.01% BHI, bactericidal action of KSL was determined in isotonic HBSS after incubation with the targeted bacteria for 1 h at 37° C. KSL at 6.25 μg ml^−1, which was determined to be the 99% effective dose (ED99), caused more than 2 log reductions in viable counts of the organisms tested, which included L. salivarius ATCC 29602 (FIG. 3a), S. mutans ATCC 25175^T (FIG. 3b), S. gordonii ATCC 51656 (FIG. 3c), and Actinobacillus actinomycetemcomitans ATCC 43718 (FIG. 3d).

[17] = tested on: S. mutans ATCC 25175; assay: as above; type: cell-based, Streptococcus mutans
Description: as §1, §7, §8

[18] = tested on: S. gordonii ATCC 51656; assay: as above; type: cell-based, Streptococcus gordonii
Description: as §1, §7, §8

[19] = tested on: Actinobacillus actinomycetemcomitans ATCC 43718; assay: as above; type: cell-based
Description: as §1, §7, §8

[20] = tested on: saliva bacteria (facultative anaerobic oral bacteria collected from saliva); assay: In vitro killing of saliva bacteria; type: cell-based; settings: 200 μg KSL ml^−1, 30 min at 37° C., vs PBS
Experimental: The killing assay of saliva bacteria was done according to procedures established by Helmerhorst et al. (1999). Unstimulated saliva was collected from four healthy individuals who had refrained from eating for at least 2 hours. The study was approved by the Institutional Review Board of the Walter Reed Army Institute of Research and informed consent and sample donation consent were obtained from all volunteers. Pooled saliva was initially spun at 500 r.p.m. in an Eppendorf centrifuge (model 5810R) for 10 min at 4° C. to remove epithelial cells and mucus. Saliva bacteria were collected by spinning the supernatant at 4000 r.p.m. for 15 min at 4° C. The pellet was washed three times in 10 mM potassium phosphate buffer (PPB) and suspended in the same buffer to give approximately 1.0×10^7 cells ml^−1. Bacterial suspension (250 μl) was mixed with 250 μl peptide to obtain final peptide concentrations of 12.5, 25, 50, 100 and 200 μg ml^−1. After incubation of the mixture at 37° C. for 30 min, cells were spun down to remove KSL, washed once in PBS having a pH of 7.4 and suspended in PBS before spiral-plating 50 μl of the treated and untreated cells in different dilutions on BAP. The negative control was exposed to buffer only. Saliva bacteria exposed to 0.12% aqueous chlorhexidine served as positive controls. […]

[21] = MHB, 4 × 10^6 cells ml^−1, 37° C., 24-48 h
[22] = clear MIC wells plated on BAP, 24-48 h
[23] = MHB, 4 × 10^6 cells ml^−1, 37° C.

**Q.** What does the source list for “KKVVFKVKFK-NH2 [KSL, lys-lys-val-val-phe-lys-val-lys-phe-lys]”?
**A.** concentration inhibiting growth effectively [1]: < 25 µg/mL; MIC [1, 21]: 6.25 µg/mL; MBC [1, 22]: 12.5 µg/mL; MIC ([2]; MHB, 37° C.): 25 µg/mL; MBC ([2]; clear MIC wells plated on BAP): 100 µg/mL; MIC [3, 23]: 50 µg/mL; MBC ([3]; clear MIC wells plated on BAP): 100 µg/mL; MIC [4, 23]: 50 µg/mL; MBC ([4]; clear MIC wells plated on BAP): 100 µg/mL; MIC [5, 23]: 25 µg/mL; MBC ([5]; clear MIC wells plated on BAP): 100 µg/mL; MIC [6, 23]: 25 µg/mL; MBC ([6]; clear MIC wells plated on BAP): 50 µg/mL; MIC [7, 23]: 100 µg/mL; MBC ([7]; clear MIC wells plated on BAP): 200 µg/mL; concentration inhibiting growth effectively [8]: < 25 µg/mL; MIC [8, 21]: 25 µg/mL; MBC [8, 22]: 50 µg/mL; MIC [9, 23]: 50 µg/mL; MBC ([9]; clear MIC wells plated on BAP): 100 µg/mL; MIC ([10]; 20% Actinomyces broth, anaerobic, 4 × 10^6 cells ml^−1, 37° C.): 6.25 µg/mL; MBC ([10]; clear MIC wells plated on BAP): 12.5 µg/mL; MIC ([11]; MHB or modified broth, 4 × 10^6 cells ml^−1, 37° C.): 3.13 µg/mL; MBC ([11]; clear MIC wells plated on BAP): 12.5 µg/mL; MIC ([12]; BHI, 5% CO2, 4 × 10^6 cells ml^−1, 37° C.): 25 µg/mL; MBC ([12]; clear MIC wells plated on BAP): 50 µg/mL; MIC ([13]; 50% BHI, 5% CO2, 37° C.): 100 µg/mL; MBC ([13]; clear MIC wells plated on BAP): 200 µg/mL; MIC ([14]; 10% MRS, 4 × 10^6 cells ml^−1, 37° C.): 3.13 µg/mL; MBC ([14]; clear MIC wells plated on BAP): 12.5 µg/mL; concentration inhibiting growth effectively [15]: < 25 µg/mL; MIC ([15]; 10% MRS, 4 × 10^6 cells ml^−1, 37° C., 24-48 h): 3.13 µg/mL; MBC [15, 22]: 12.5 µg/mL; log reduction in viable counts ([16]; 6.25 μg ml^−1, HBSS, FIG. 3a): more than 2 log; reduction in viability ([16]; concentrations of <10 μg ml^−1): > 3 logs; ED99 (99% effective dose) ([16]; isotonic HBSS, 1 h at 37° C.): 6.25 µg/mL; log reduction in viable counts ([17]; 6.25 μg ml^−1, HBSS, FIG. 3b): more than 2 log; reduction in viability ([17]; concentrations of <10 μg ml^−1): > 3 logs; ED99 (99% effective dose) ([17]; isotonic HBSS, 1 h at 37° C.): 6.25 µg/mL; log reduction in viable counts ([18]; 6.25 μg ml^−1, HBSS, FIG. 3c): more than 2 log; reduction in viability ([18]; concentrations of <10 μg ml^−1): > 3 logs; ED99 (99% effective dose) ([18]; isotonic HBSS, 1 h at 37° C.): 6.25 µg/mL; log reduction in viable counts ([19]; 6.25 μg ml^−1, 0.01% BHI, FIG. 3d): more than 2 log; ED99 (99% effective dose) ([19]; 0.01% BHI, 1 h at 37° C.): 6.25 µg/mL; reduction in viability ([19]; concentrations of <10 μg ml^−1): > 3 logs; log reduction in facultative anaerobes in saliva [20]: 1.05 log
